In brackets after ≈: the same amount, converted by molar mass.
Columns and labels:
Galactokinase = Galactokinase (Homo sapiens, UniProt P51570); test: Inhibition of recombinant human GALK1 using galactose as substrate incubated for 1 hrs in the presence of ATP by Kinase-Glo reagent based luminescence assay
[1] = Permeability of the compound at pH 7.4 measured after 30 mins by PAMPA based LC/MS analysis; type: ADME; details: PAMPA, pH 7.4, read-out: permeability
[2] = Metabolic stability in mouse liver microsome assessed as half life; type: ADME; details: microsomes
[3] = Metabolic stability in human liver microsomes assessed as half life; type: ADME, Microsome
physchem = details: phosphate buffer, pH 7.4
Description: Kinetic solubility of the compound in phosphate buffer at pH 7.4 at 150 uM incubated for 6 hrs by shake-flask method

Chain of Galactokinase (P51570 whole entry): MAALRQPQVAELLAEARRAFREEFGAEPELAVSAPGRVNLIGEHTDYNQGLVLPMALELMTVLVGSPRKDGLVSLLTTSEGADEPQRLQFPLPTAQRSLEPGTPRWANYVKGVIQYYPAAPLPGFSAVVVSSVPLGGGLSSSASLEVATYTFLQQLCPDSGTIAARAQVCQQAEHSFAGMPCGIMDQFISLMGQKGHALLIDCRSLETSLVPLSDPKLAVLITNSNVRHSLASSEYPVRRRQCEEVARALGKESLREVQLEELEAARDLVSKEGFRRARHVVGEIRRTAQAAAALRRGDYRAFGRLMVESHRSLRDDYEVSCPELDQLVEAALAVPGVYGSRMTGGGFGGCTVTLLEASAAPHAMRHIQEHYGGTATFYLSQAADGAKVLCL

| Structure (SMILES) | IC50 (Galactokinase; read-out: pIC50 (converted)) | further results |
| --- | --- | --- |
| CC1=C(C(=O)Nc2nncs2)C(c2ccccc2Cl)N=C(Nc2nc3ccccc3o2)N1 (stereo unspecified) | 3.72 µM | IC50 (Galactokinase; read-out: IC50): 3.43 µM |
| CC1=C(C(=O)Nc2cc(C(=O)O)ccn2)C(c2ccc(Cl)cc2Cl)N=C(Nc2nc3ccc(F)cc3o2)N1 (stereo unspecified) | 1.05 µM |  |
| CC1=C(C(=O)Nc2cc(C(=O)O)ccn2)C(c2ccccc2Cl)N=C(Nc2nc3c(N)cccc3o2)N1 (stereo unspecified) | 19.5 µM |  |
| CC1=C(C(=O)Nc2cccc(CO)c2)C(c2ccccc2Cl)N=C(Nc2nc3ccccc3o2)N1 (stereo unspecified) | 4.17 µM |  |
| CC1=C(C(=O)Nc2cc(C(=O)O)ccn2)C(c2ccccc2Cl)N=C(Nc2nc3cccc(N)c3o2)N1 (stereo unspecified) | 0.234 µM |  |
| CCn1cc(CNC(=O)C2=C(C)NC(Nc3nc4ccc(F)c(N)c4o3)=N[C@H]2c2ccc(C)cc2Cl)cn1 |  | Papp at 0.5 h [1]: 773 ×10⁻⁶ cm/s; IC50 (Galactokinase; read-out: IC50): 0.068 µM; t1/2 [2]: 7 min; t1/2 [3]: 12 min; solubility kinetic at 6 h, 150 µM (physchem): < 1 µg/mL |
| CCn1cc(CNC(=O)C2=C(C)NC(Nc3nc4ccc(F)c(N)c4o3)=N[C@@H]2c2ccc(C)cc2Cl)cn1 | 1.48 µM | Papp at 0.5 h [1]: 407 ×10⁻⁶ cm/s; t1/2 [2]: 12 min; t1/2 [3]: 10 min; solubility kinetic at 6 h, 150 µM (physchem): 2.1 µg/mL (≈ 3.91 µM) |
| CCn1cc(CNC(=O)C2=C(C)NC(Nc3nc4cccc(N)c4o3)=NC2c2ccc(C)cc2Cl)cn1 (racemic) |  | Papp at 0.5 h [1]: 632 ×10⁻⁶ cm/s; t1/2 [3]: 120 min; solubility kinetic at 6 h, 150 µM (physchem): 2.4 µg/mL (≈ 4.62 µM) |
| CC1=C(C(=O)Nc2cc(C(=O)O)ccn2)C(c2ccccc2Cl)N=C(Nc2nc3cccc(F)c3o2)N1 (stereo unspecified) | 1.78 µM |  |
| CC1=C(C(=O)NCc2cnn(C)c2)[C@@H](c2ccc(C)cc2Cl)N=C(Nc2nc3cccc(N)c3o2)N1 | 11.7 µM |  |
| CC1=C(C(=O)Nc2cccc(F)c2)C(c2ccccc2Cl)N=C(Nc2nc3ccccc3o2)N1 (stereo unspecified) | 6.61 µM |  |
| CC1=C(C(=O)Nc2ccccc2Cl)C(c2ccccc2Cl)N=C(Nc2nc3ccccc3o2)N1 (stereo unspecified) | 4.17 µM |  |
| CC1=C(C(=O)Nc2cc(C(=O)O)ccn2)C(c2ccccc2Cl)N=C(Nc2nc3c(C)cccc3o2)N1 (stereo unspecified) | 9.33 µM |  |
| CC1=C(C(=O)Nc2ccc(O)cc2)C(c2ccccc2Cl)N=C(Nc2nc3ccccc3o2)N1 (stereo unspecified) | 3.72 µM |  |
| COC(=O)c1ccc(NC(=O)C2=C(C)NC(Nc3nc4ccccc4o3)=NC2c2ccccc2Cl)cc1 (stereo unspecified) | 4.47 µM | IC50 (Galactokinase; read-out: IC50): 4.32 µM |
| CC1=C(C(=O)Nc2cc(C(=O)O)ccn2)C(c2ccc(F)cc2Cl)N=C(Nc2nc3ccc(F)cc3o2)N1 (stereo unspecified) | 0.891 µM |  |
| CC1=C(C(=O)NCc2ccc(C(=O)O)cc2)C(c2ccccc2Cl)N=C(Nc2nc3ccccc3o2)N1 (stereo unspecified) | 3.72 µM |  |
| CC1=C(C(=O)NCc2ccc(CO)cc2)C(c2ccccc2Cl)N=C(Nc2nc3ccccc3o2)N1 (stereo unspecified) | 6.61 µM |  |
| CC1=C(C(=O)Nc2cc(C(=O)O)ccn2)C(c2ccccc2Cl)N=C(Nc2nc3cc(N)ccc3o2)N1 (stereo unspecified) | 7.41 µM |  |
